From US4956294A, “Culture of Streptoverticillium synroense for producing an antibacterial” (Merck & Co., Inc., priority 1989, dated 1990)
In brackets after ≈: the same amount, converted by molar mass.

Columns and labels:
[1] = tested on: B. fragilis Clind^r, Fox^r, Tet^r 4360; assay: Anaerobic agar dilution, Wilkens-Chalgren agar; assay type: cell-based; conditions: Bacteroides fragilis; anaerobic, inoculum 10^6 cfu/spot, 35° C., 48 hours; read-out: MIC
[2] = tested on: E. coli 2891; assay: Agar dilution, trypticase soy agar; conditions: Escherichia coli, 2891, 20 h
[3] = tested on: Actinomyces naeslundii 4053; assay: Anaerobic agar dilution, Wilkens-Chalgren agar; assay type: cell-based; conditions: Actinomyces naeslundii, 4053; anaerobic, inoculum 10^6 cfu/spot, 35° C., 48 hours; read-out: MIC
[4] = tested on: C. perfringens 3513; assay: microbe, parasite or virus in culture; assay type: cell-based; conditions: Clostridium perfringens, 3513, 48 h
[5] = tested on: B. ovatus Pen^r 3248; assay: Anaerobic agar dilution, Wilkens-Chalgren agar; assay type: cell-based; conditions: Bacteroides ovatus; anaerobic, inoculum 10^6 cfu/spot, 35° C., 48 hours; read-out: MIC
[6] = tested on: Propionibacterium acnes 2249; assay: Anaerobic agar dilution, Wilkens-Chalgren agar; assay type: cell-based; conditions: Cutibacterium acnes, 2249; anaerobic, inoculum 10^6 cfu/spot, 35° C., 48 hours; read-out: MIC
[7] = tested on: Prot. vulgaris 2829; assay: Agar dilution, trypticase soy agar; conditions: Proteus vulgaris, 2829, 20 h
[8] = tested on: K. pneumoniae 4005; assay: Agar dilution, trypticase soy agar; conditions: Klebsiella pneumoniae, 4005, 20 h
[9] = tested on: E. coli TEM 2+ 4351; assay: Agar dilution, trypticase soy agar; conditions: Escherichia coli, 20 h
[10] = tested on: Bifidobacterium dentium Fox^r 4427; assay: Anaerobic agar dilution, Wilkens-Chalgren agar; assay type: cell-based; conditions: 48 h
[11] = tested on: Peptostreptococcus anaerobius 3282; assay: Anaerobic agar dilution, Wilkens-Chalgren agar; assay type: cell-based; conditions: Peptostreptococcus anaerobius, 3282; anaerobic, inoculum 10^6 cfu/spot, 35° C., 48 hours; read-out: MIC
[12] = tested on: S. aureus Gm^r Meth^r 4310; assay: Agar dilution, trypticase soy agar; conditions: Staphylococcus aureus, 20 h
[13] = tested on: Ent. cloacae P99- 2647; assay: Agar dilution, trypticase soy agar; conditions: Enterobacter cloacae, P992647, 20 h
[14] = tested on: C. difficile Fox^r 4380; assay: Anaerobic agar dilution, Wilkens-Chalgren agar; assay type: cell-based; conditions: Clostridioides difficile; anaerobic, inoculum 10^6 cfu/spot, 35° C., 48 hours; read-out: MIC
[15] = tested on: B. distasonis Pen^r, Fox^r, Clind^r 4361; assay: Anaerobic agar dilution, Wilkens-Chalgren agar; assay type: cell-based; conditions: Parabacteroides distasonis; anaerobic, inoculum 10^6 cfu/spot, 35° C., 48 hours; read-out: MIC
[16] = tested on: B. thetalotamicron Clind^r, NCCLS control strain 4420; assay: Anaerobic agar dilution, Wilkens-Chalgren agar; assay type: cell-based; conditions: anaerobic, inoculum 10^6 cfu/spot, 35° C., 48 hours; read-out: MIC
[17] = tested on: Sal. typhimurium 3860; assay: Agar dilution, trypticase soy agar; conditions: Salmonella enterica, 20 h
[18] = tested on: C. perfringens 3510; assay: microbe, parasite or virus in culture; assay type: cell-based; conditions: Clostridium perfringens, 3510, 48 h
[19] = tested on: Prot. morganii Sm^r 2833; assay: Agar dilution, trypticase soy agar; conditions: Morganella morganii, 20 h
[20] = tested on: Bacteroides fragilis Met^r . Pen^r 4324; assay: Anaerobic agar dilution, Wilkens-Chalgren agar; assay type: cell-based; conditions: anaerobic, inoculum 10^6 cfu/spot, 35° C., 48 hours, read-out: MIC
[21] = tested on: B. fragilis Pen^r 3214; assay: Anaerobic agar dilution, Wilkens-Chalgren agar; assay type: cell-based; conditions: Bacteroides fragilis; anaerobic, inoculum 10^6 cfu/spot, 35° C., 48 hours; read-out: MIC
[22] = tested on: B. thetalotamicron Clind^r 4362; assay: Anaerobic agar dilution, Wilkens-Chalgren agar; assay type: cell-based; conditions: anaerobic, inoculum 10^6 cfu/spot, 35° C., 48 hours; read-out: MIC
[23] = tested on: C. perfringens 3512; assay: microbe, parasite or virus in culture; assay type: cell-based; conditions: Clostridium perfringens, 3512, 48 h
[24] = tested on: C. perfringens 3508; assay: microbe, parasite or virus in culture; assay type: cell-based; conditions: Clostridium perfringens, 3508, 48 h
[25] = tested on: K. pneumoniae K1+ 4354; assay: Agar dilution, trypticase soy agar; conditions: Klebsiella pneumoniae, 20 h
[26] = tested on: C. perfringens 3511; assay: microbe, parasite or virus in culture; assay type: cell-based; conditions: Clostridium perfringens, 3511, 48 h
[27] = tested on: Clostridium perfringens NCCLS control strain 4418; assay: microbe, parasite or virus in culture; assay type: cell-based; conditions: 48 h
[28] = tested on: Fusobacterium mortiferum Fox^r 3345; assay: Anaerobic agar dilution, Wilkens-Chalgren agar; assay type: cell-based; conditions: anaerobic, inoculum 10^6 cfu/spot, 35° C., 48 hours, read-out: MIC
[29] = tested on: C. perfringens 2237; assay: microbe, parasite or virus in culture; assay type: cell-based; conditions: Clostridium perfringens, 2237, 48 h
[30] = tested on: C. difficile Clind^r 4273; assay: Anaerobic agar dilution, Wilkens-Chalgren agar; assay type: cell-based; conditions: Clostridioides difficile; anaerobic, inoculum 10^6 cfu/spot, 35° C., 48 hours; read-out: MIC
[31] = tested on: C. ramosum 4272; assay: Anaerobic agar dilution, Wilkens-Chalgren agar; assay type: cell-based; conditions: Thomasclavelia ramosa, 4272; anaerobic, inoculum 10^6 cfu/spot, 35° C., 48 hours; read-out: MIC
[32] = tested on: Ent. cloacae P99+ 2646; assay: Agar dilution, trypticase soy agar; conditions: Enterobacter cloacae, 20 h
[33] = tested on: Ser. marcescens 2840; assay: Agar dilution, trypticase soy agar; conditions: Serratia marcescens, 2840, 20 h
[34] = tested on: Veillonella alcalescens 1952; assay: Anaerobic agar dilution, Wilkens-Chalgren agar; assay type: cell-based; conditions: Veillonella parvula, 1952; anaerobic, inoculum 10^6 cfu/spot, 35° C., 48 hours; read-out: MIC
[35] = tested on: Eubacterium limosum 3344; assay: Anaerobic agar dilution, Wilkens-Chalgren agar; assay type: cell-based; conditions: inoculum 10^6 cfu/spot, 35° C., 48 hours
Protocol: (a) Wilkens-Chalgren agar was used instead of antagonist-free medium (Roche);
(b) The inoculum/spot was about 10^6 instead of about 10^4 ;
(c) The incubation period was for 48 hours, not 24 hours; and
(d) Incubations were performed under anaerobic conditions.

[36] = tested on: E. coli TEM 2+ DC2 4352; assay: Agar dilution, trypticase soy agar; conditions: Escherichia coli, 20 h
[37] = tested on: B. distasonis Pen^r, Fox^r 3445; assay: Anaerobic agar dilution, Wilkens-Chalgren agar; assay type: cell-based; conditions: Parabacteroides distasonis, 48 h
[38] = tested on: Ps. aeruginosa RPL11+ 3350; assay: Agar dilution, trypticase soy agar; conditions: Pseudomonas aeruginosa, 20 h
[39] = tested on: C. perfringens 3509; assay: microbe, parasite or virus in culture; assay type: cell-based; conditions: Clostridium perfringens, 3509, 48 h
[40] = tested on: B. fragilis NCCLS control strain 4419; assay: Anaerobic agar dilution, Wilkens-Chalgren agar; assay type: cell-based; conditions: Bacteroides fragilis; anaerobic, inoculum 10^6 cfu/spot, 35° C., 48 hours; read-out: MIC
[41] = tested on: Prot. mirabilis Gm^r 2830; assay: Agar dilution, trypticase soy agar; conditions: Proteus mirabilis, 20 h
[42] = tested on: B. asaccharolyticus 4271; assay: Anaerobic agar dilution, Wilkens-Chalgren agar; assay type: cell-based; conditions: Porphyromonas asaccharolytica, 4271; anaerobic, inoculum 10^6 cfu/spot, 35° C., 48 hours; read-out: MIC
[43] = tested on: Ps. aeruginosa 4279; assay: Agar dilution, antagonist-free medium; conditions: Pseudomonas aeruginosa, 4279, 20 h
[44] = tested on: E. coli 2891; assay: Agar dilution, antagonist-free medium; conditions: Escherichia coli, 2891, 20 h
[45] = tested on: Staph. aureus 2865; assay: Agar dilution, antagonist-free medium; conditions: Staphylococcus aureus, 2865, 20 h
[46] = tested on: Sal. typhimurium 3860; assay: Agar dilution, antagonist-free medium; conditions: Salmonella enterica, 20 h
[47] = tested on: Prot. vulgaris 2829; assay: Agar dilution, antagonist-free medium; conditions: Proteus vulgaris, 2829, 20 h
[48] = tested on: Ent. cloacae P99- 2647; assay: Agar dilution, antagonist-free medium; conditions: Enterobacter cloacae, P992647, 20 h
[49] = tested on: E. coli TEM 2+ 4351; assay: Agar dilution, antagonist-free medium; conditions: Escherichia coli, 20 h
[50] = tested on: E. coli DC2 4353; assay: Agar dilution, antagonist-free medium; conditions: Escherichia coli, DC24353, 20 h
[51] = tested on: Ser. marcescens 2840; assay: Agar dilution, antagonist-free medium; conditions: Serratia marcescens, 2840, 20 h

For `CO[C@@]1(NC(=O)Cc2cccs2)C(=O)N2C(C(=O)O)=C(COC(N)=O)CS[C@@H]21` [CEFOXITIN, Cefoxitin, reference compound], the MIC [1] was 32 µg/mL (≈ 74.9 µM), the MIC [2] was 64 µg/mL (≈ 150 µM) and the MIC [3] was 0.015 µg/mL (≈ 0.0351 µM). It also gave an MIC [4] of 2 µg/mL (≈ 4.68 µM), an MIC [5] of 32 µg/mL (≈ 74.9 µM) and an MIC [6] of 0.06 µg/mL (≈ 0.14 µM). The MIC [7] was 4 µg/mL (≈ 9.36 µM), the MIC [8] was 2 µg/mL (≈ 4.68 µM) and the MIC [9] was 4 µg/mL (≈ 9.36 µM). For the same molecule, the MIC [10] was 64 µg/mL (≈ 150 µM), the MIC [11] was 1 µg/mL (≈ 2.34 µM) and the MIC [12] was > 128 µg/mL. It also gave an MIC [13] of 8 µg/mL (≈ 18.7 µM), an MIC [14] of 64 µg/mL (≈ 150 µM) and an MIC [15] of 32 µg/mL (≈ 74.9 µM). The MIC [16] was 32 µg/mL (≈ 74.9 µM), the MIC [17] was 4 µg/mL (≈ 9.36 µM) and the MIC [18] was 0.5 µg/mL (≈ 1.17 µM). For the same molecule, the MIC [19] was 8 µg/mL (≈ 18.7 µM), the MIC [20] was 4 µg/mL (≈ 9.36 µM) and the MIC [21] was 16 µg/mL (≈ 37.4 µM). For the same molecule, the MIC [22] was 32 µg/mL (≈ 74.9 µM), the MIC [23] was 1 µg/mL (≈ 2.34 µM) and the MIC [24] was 0.25 µg/mL (≈ 0.585 µM). For the same molecule, the MIC [25] was 4 µg/mL (≈ 9.36 µM), the MIC [26] was 1 µg/mL (≈ 2.34 µM) and the MIC [27] was 1 µg/mL (≈ 2.34 µM). It also gave an MIC [28] of 32 µg/mL (≈ 74.9 µM), an MIC [29] of 2 µg/mL (≈ 4.68 µM) and an MIC [30] of 4 µg/mL (≈ 9.36 µM). It also gave an MIC [31] of 32 µg/mL (≈ 74.9 µM), an MIC [32] of 128 µg/mL (≈ 299 µM) and an MIC [33] of 32 µg/mL (≈ 74.9 µM). For the same molecule, the MIC [34] was 1 µg/mL (≈ 2.34 µM), the MIC [35] was 1 µg/mL (≈ 2.34 µM) and the MIC [36] was 2 µg/mL (≈ 4.68 µM). The MIC [37] was 128 µg/mL (≈ 299 µM), the MIC [38] was > 128 µg/mL and the MIC [39] was 0.25 µg/mL (≈ 0.585 µM). It also gave an MIC [40] of 8 µg/mL (≈ 18.7 µM), an MIC [41] of 4 µg/mL (≈ 9.36 µM) and an MIC [42] of 0.5 µg/mL (≈ 1.17 µM).

For `N[C@@H]1CONC1=O` [D-Cycloserine, D-cycloserine, reference compound], the MIC [43] was 16 µg/mL (≈ 157 µM), the MIC [44] was 4 µg/mL (≈ 39.2 µM) and the MIC [45] was 2 µg/mL (≈ 19.6 µM). For the same molecule, the MIC [46] was 4 µg/mL (≈ 39.2 µM), the MIC [47] was 32 µg/mL (≈ 313 µM) and the MIC [48] was 4 µg/mL (≈ 39.2 µM). For the same molecule, the MIC [49] was 2 µg/mL (≈ 19.6 µM), the MIC [50] was 8 µg/mL (≈ 78.4 µM) and the MIC [51] was > 256 µg/mL.
